{
  "source": "patent US20170340693A1",
  "about": "“DISLODGEMENT AND RELEASE OF HSC USING ALPHA 9 INTEGRIN ANTAGONIST AND CXCR4 ANTAGONIST” (COMMONWEALTH SCIENTIFIC AND INDUSTRIAL RESEARCH ORGANISATION, priority 2014, published 2017)",
  "key": {"[1]": {"tested_on": "progenitors (LSK) and HSC (LSKSLAM) in peripheral blood", "test": "HSC mobilization to peripheral blood in mice", "assay_type": "in vivo", "method": "(§1) For mobilization experiments, all mice received subcutaneous injections at 100 μl/10 gm body weight and PB was harvested by throat bleed using EDTA coated syringes.\n(a) R-BC154 (IXb) and BOP. Mice received a single injection of freshly prepared solutions of R-BC154 (IXb) and BOP in saline at the doses indicated before PB was harvested by throat bleed at the times indicated.\n(b) G-CSF. Mice received G-CSF at 250 μg/kg twice daily (500 ug/kg/day), 6-8 hours apart for 4 consecutive days. Groups receiving G-CSF and BOP received the standard G-CSF regime as described above followed by a single injection of BOP 1 h prior to harvest. Control mice received an equal volume of saline.\n(§2) Mice received subcutaneous injections at 100 μl/10 gm body weight of a single injection of BOP (up to 15 mg/kg) for various timeframes, a single BIO5192 injection at 1 mg/kg for 1 hour, a single AMD3100 injection at 3 mg/kg for 1 hour (mice also receiving BOP or BIO15192 were injected with a single dose of BOP or BIO15192 1 hour prior to harvest), or G-CSF at 250 μg/kg twice daily (500 μg/kg/day), 6-8 hours apart for 4 consecutive days (mice also receiving BOP and/or AMD3100 were injected with a single dose of BOP and/or AMD3100 1 h prior to harvest). Control mice received an equivalent volume of saline or 10% HPβCD/saline where appropriate."}, "WBC in peripheral blood": {"tested_on": "WBC in peripheral blood", "test": "PB white blood cell / lymphocyte content after mobilization", "assay_type": "in vivo, mice", "settings": "for WBC counts: peripheral blood after administration", "method": "as §1, §2"}, "LPP-CFC and HPP-CFC": {"tested_on": "LPP-CFC and HPP-CFC", "test": "Low- and high-proliferative potential colony-forming cell assays of mobilized PB", "parameters": "species or system mice", "settings": "mouse, in vivo", "method": "Low- and high-proliferative potential colony-forming cells (LPP-CFC and HPP-CFC, respectively) were assayed as previously described in J. Grassinger et al Cytokine, 2012, 58, 218-225 and Bartelmez, S. H. et al Experimental hematology 17, 240-245 (1989). Briefly, mobilized PB were lysed and 4000 WBCs were plated in 35 mm Petri dishes in a double-layer nutrient agar culture system containing recombinant mouse stem cell factor and recombinant human colony-stimulating factor-1, interleukin-1α (IL-1α), and IL-3. Cultures were incubated at 37° C. in a humidified incubator at 5% O2, 10% CO2, 85% N2. LPP-CFC and HPP-CFC were enumerated at 14 days of incubation as previously described in J. Grassinger, et al (2012)."}, "[2]": {"tested_on": "human WBC and human CD34+ stem and progenitors", "test": "Mobilization of humanised NSG (huNSG) mice", "assay_type": "in vivo", "settings": "single dose, G-CSF multiple doses for 4-days", "description": "Humanised NSG mice were generated by tail vein injection of freshly sorted cord blood CD34^+ cells (>150 k) with 2×10^6 irradiated mononuclear support cells. After 4-weeks post-transplantation, NSG mice were eyebled and assessed for huCD45 and muCD45. Under these conditions, >90% humanisation was achieved as determined by flow cytometric analysis based on % huCD45 relative to total % CD45. Humanised NSG mice were given at least 1 week to recover prior to experimentation. Mice were mobilized under the relevant conditions specified in “Mobilization protocols” and PB subsequently collected by throatbleed, lysed and immunolabelled as described in “Antibody cocktails”.\nas §2"}, "α9β1": {"target": "T1, α9β1 (Homo sapiens, UniProt P05556+Q13797)", "T1 construct": "expressed in transfected cells; host or cells: LN18 (ATCC CRL-2610), retrovirally transduced; endogenous α4 silenced with pSM2c-shITGA4", "T1 sequence (Q13797 30-1035)": "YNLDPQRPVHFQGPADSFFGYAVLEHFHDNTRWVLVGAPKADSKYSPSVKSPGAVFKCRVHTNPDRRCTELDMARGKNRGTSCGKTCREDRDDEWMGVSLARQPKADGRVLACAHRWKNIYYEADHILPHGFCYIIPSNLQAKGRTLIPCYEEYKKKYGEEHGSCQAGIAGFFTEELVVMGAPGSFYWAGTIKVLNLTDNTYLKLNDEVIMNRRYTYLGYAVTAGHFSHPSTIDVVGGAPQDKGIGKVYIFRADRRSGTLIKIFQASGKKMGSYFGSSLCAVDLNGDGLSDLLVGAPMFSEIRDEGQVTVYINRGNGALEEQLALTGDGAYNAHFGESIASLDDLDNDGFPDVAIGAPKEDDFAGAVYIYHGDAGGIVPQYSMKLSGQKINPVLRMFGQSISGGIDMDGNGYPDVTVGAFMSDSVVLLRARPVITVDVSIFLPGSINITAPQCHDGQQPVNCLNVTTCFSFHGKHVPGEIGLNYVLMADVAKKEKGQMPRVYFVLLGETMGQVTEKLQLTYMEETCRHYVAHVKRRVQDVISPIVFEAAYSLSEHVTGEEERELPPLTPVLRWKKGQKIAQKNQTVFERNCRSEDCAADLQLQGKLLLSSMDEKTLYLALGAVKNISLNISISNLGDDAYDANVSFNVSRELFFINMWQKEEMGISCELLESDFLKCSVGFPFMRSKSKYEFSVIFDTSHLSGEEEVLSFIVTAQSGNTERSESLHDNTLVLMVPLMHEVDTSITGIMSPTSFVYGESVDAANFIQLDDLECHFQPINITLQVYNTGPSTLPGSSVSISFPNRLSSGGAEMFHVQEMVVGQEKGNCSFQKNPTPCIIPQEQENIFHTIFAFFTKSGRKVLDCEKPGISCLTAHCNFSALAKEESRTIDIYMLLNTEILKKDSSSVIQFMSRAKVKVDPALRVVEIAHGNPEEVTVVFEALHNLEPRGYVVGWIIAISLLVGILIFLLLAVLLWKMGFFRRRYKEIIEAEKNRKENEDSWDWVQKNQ", "T1 sequence (P05556 21-798)": "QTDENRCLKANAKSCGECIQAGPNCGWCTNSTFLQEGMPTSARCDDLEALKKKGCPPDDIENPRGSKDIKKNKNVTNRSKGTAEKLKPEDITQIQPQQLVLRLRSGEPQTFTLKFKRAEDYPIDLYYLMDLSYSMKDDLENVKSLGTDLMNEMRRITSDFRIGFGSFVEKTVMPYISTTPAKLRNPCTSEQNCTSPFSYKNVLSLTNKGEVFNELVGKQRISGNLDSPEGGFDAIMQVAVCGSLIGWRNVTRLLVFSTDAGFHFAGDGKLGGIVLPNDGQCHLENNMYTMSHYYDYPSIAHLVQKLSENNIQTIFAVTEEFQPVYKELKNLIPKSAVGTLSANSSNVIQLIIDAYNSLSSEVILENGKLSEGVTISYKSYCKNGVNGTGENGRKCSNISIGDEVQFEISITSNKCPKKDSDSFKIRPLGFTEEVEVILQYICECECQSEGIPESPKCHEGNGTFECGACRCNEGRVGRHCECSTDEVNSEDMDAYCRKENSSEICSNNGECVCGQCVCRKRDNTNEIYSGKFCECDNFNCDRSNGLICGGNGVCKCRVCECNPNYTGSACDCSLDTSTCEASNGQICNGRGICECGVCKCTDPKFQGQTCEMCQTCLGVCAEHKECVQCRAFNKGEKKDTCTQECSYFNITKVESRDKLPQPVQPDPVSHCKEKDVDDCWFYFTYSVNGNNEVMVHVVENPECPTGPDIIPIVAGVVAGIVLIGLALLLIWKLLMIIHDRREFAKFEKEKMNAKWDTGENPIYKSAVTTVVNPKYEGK", "test": "Inhibition of R-BC154 (IXb) binding, transduced LN18 cells and CHO cells, flow cytometry", "parameters": "species or system human and murine", "settings": "R-BC154 100 nM, antagonist 1 μM, 1 mM CaCl2MgCl2, 0° C. 30 min", "method": "(§3) For the assessment of α9β1 contribution to R-BC154 (IXb) binding, human and murine cells were stained with R-BC154 (100 nM) in the absence of competing antagonist or in the presence of excess amounts of the selective α4β1 antagonist BIO5192 (1 μM) or dual α4β1/α9β1 antagonist BOP (1 μM) in PBS containing 0.5% BSA and 1 mM CaCl2MgCl2 at 0° C. for 30 min. Cells were washed, immunolabelled as described above and analysed by flow cytometry. The contribution of α9β1 binding was calculated by measuring the difference in MFI between R-BC154 (IXb)+BIO5192 and +BOP and expressed as a % of R-BC154 (IXb) alone."}, "α9β1 integrin": {"target": "α9β1 integrin (Homo sapiens, UniProt P05556+Q13797)", "sequence (Q13797 30-1035)": "as the sequence (Q13797 30-1035) above", "sequence (P05556 21-798)": "as the sequence (P05556 21-798) above", "test": "Inhibition of integrin binding to VCAM-1 and Opn in vitro"}, "α4β1 integrin": {"target": "α4β1 integrin (Homo sapiens, UniProt P05556+P13612)", "sequence (P13612 34-1032)": "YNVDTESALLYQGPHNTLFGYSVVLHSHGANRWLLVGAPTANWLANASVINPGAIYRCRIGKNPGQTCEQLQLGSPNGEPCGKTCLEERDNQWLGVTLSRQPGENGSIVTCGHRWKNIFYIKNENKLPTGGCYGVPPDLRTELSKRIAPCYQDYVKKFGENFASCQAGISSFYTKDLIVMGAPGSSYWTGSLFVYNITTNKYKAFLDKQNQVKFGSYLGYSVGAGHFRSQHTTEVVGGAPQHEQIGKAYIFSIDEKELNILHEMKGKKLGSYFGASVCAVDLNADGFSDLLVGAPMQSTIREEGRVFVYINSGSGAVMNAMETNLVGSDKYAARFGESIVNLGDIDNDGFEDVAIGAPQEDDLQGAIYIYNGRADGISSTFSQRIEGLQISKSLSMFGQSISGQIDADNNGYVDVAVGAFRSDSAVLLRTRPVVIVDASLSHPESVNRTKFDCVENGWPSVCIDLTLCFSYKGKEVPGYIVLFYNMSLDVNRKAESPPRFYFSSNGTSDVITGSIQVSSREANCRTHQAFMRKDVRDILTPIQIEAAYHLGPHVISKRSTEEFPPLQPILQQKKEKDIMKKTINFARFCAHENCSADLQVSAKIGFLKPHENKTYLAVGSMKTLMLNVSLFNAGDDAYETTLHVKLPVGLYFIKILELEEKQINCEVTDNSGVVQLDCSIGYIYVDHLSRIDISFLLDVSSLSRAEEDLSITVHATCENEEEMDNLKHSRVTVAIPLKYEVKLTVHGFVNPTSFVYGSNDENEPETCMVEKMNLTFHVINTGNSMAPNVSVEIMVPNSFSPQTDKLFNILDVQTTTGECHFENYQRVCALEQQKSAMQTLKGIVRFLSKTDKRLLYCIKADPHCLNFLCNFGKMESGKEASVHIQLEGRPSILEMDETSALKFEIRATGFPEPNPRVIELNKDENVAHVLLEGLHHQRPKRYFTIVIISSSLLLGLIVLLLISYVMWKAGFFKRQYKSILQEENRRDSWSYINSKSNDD", "sequence (P05556 21-798)": "as the sequence (P05556 21-798) above", "test": "Inhibition of integrin binding to VCAM-1 and Opn in vitro"}, "[3]": {"tested_on": "cord blood (CB) mononuclear cells (MNC)", "test": "R-BC154 (IXb) binding to cord blood mononuclear cell populations, flow cytometry", "assay_type": "cell-based, human", "settings": "R-BC154 (100 nM) in the presence of excess selective α4β1 antagonist BIO5192 (1 μM) or dual α4β1/α9β1 antagonist BOP (1 μM)", "method": "For in vitro labelling experiments, 5×10^6 BM cells from C57 mice, conditional α4^−/−/α9^−/− mice and humanised NODSCIDIL2Rγ^−/− mice and human cord blood MNCs were treated with R-BC154 (IXb) (up to 300 nM) in PBS (0.5% BSA) or TBS (0.5% BSA) containing either 1 mM CaCl2/MgCl2 (activating) or 10 mM EDTA (deactivating) at 40×10^6 cells/ml for 20 mins at 4° C. Cells were washed with cold PBS (2% FBS) and then immunolabelled as described in “Antibody Cocktails” prior to flow cytometric analysis. For in vivo experiments, C57BL/6 mice, α4^−/−/α9^−/− vav-cre mice and humanised NODSCIDIL2Rγ^−/− mice received either intravenous or subcutaneous injections of R-BC154 (IXb) (5-10 mg/kg) at 100 ul/10 gm mouse weight and analysed as described above.\nas §3"}, "endosteal LSK": {"tested_on": "endosteal LSK", "test": "In vivo BOP binding to endosteal versus central progenitors", "parameters": "species or system mice", "settings": "mouse", "source_text": "Data is pooled from two independent experiments. n>6 (e) Analysis of in vivo BOP binding to endosteal versus central progenitors (LSK) and HSC (LSKSLAM) following the administration of BOP alone or BOP in combination with AMD3100. […] P<0.05"}, "α4β1 or α9β1 LN18 cells": {"tested_on": "α4β1 or α9β1 LN18 cells", "settings": "Pepinsky et al (2002); cited from earlier work"}, "α4β1": {"target": "α4β1 (Homo sapiens, UniProt P05556+P13612)", "sequence (P13612 34-1032)": "as the sequence (P13612 34-1032) above", "sequence (P05556 21-798)": "as the sequence (P05556 21-798) above", "settings": "cited from earlier work"}},
  "note": "Structures can show the parent of a compound that is named as a salt.",
  "data": [
    {"molecule": "c1cc(CN2CCCNCCNCCCNCC2)ccc1CN1CCCNCCNCCCNCC1", "note": "[AMD3100, I,r-[I,4-Phenylenebis(methylene)]bis [1,4,8,11-tetraazacyclotetradecane]octohydrobromide dehydrate, reference compound]", "values": [
      {"measurement": "increase in the proportion of progenitors (LSK cells) in the PB relative to BOP", "setting": "[1]; mouse, in vivo", "value": "comparable increases"},
      {"measurement": "WBC counts", "setting": "WBC in peripheral blood", "value": "7.8±1.5 ×10^6/ml"},
      {"measurement": "HPP-CFC content of mobilized PB relative to the saline control", "setting": "LPP-CFC and HPP-CFC", "value": "greater"},
      {"measurement": "LPP-CFC content of mobilized PB relative to the saline control", "setting": "LPP-CFC and HPP-CFC", "value": "greater"},
      {"measurement": "increase in PB human WBC or human CD34 stem and progenitors", "setting": "[2]", "value": "did not result in a significant increase"}
    ]},
    {"molecule": "O=C(O)[C@H](Cc1ccc(OC(=O)N2CCCC2)cc1)NC(=O)[C@@H]1CCCN1S(=O)(=O)c1ccccc1", "note": "[BOP, N-(Benzenesulfonyl)-L-prolyl-L-O-(1-pyrrolidinylcarbonyl)tyrosine]", "values": [
      {"measurement": "inhibition of R-BC154 (IXb) binding to α9β1", "setting": "α9β1", "value": "> 95", "unit": "%"},
      {"measurement": "inhibitory potency, α9β1 binding to VCAM-1 and Opn", "setting": "α9β1 integrin", "value": "nanomolar inhibitory potencies"},
      {"measurement": "inhibitory potency, α4β1 binding to VCAM-1 and Opn", "setting": "α4β1 integrin", "value": "nanomolar inhibitory potencies"},
      {"measurement": "inhibition of R-BC154 (IXb) binding to all CB cell populations", "setting": "[3]", "value": "complete inhibition"},
      {"measurement": "time of peak PB HSC", "setting": "[1]; mouse, in vivo", "value": 1, "unit": "h"},
      {"measurement": "increase in the proportion of HSC (LSKSLAM cells) in the PB relative to AMD3100", "setting": "[1]; p<0.05", "value": "significantly greater increase"},
      {"measurement": "increase in PB progenitors (LSK) and HSC (LSKSLAM)", "setting": "[1]; single agent, single dose", "value": "rapid, significant and dose dependent increase"},
      {"measurement": "return of PB progenitors and HSC to baseline post-administration", "setting": "[1]; single dose", "value": "≤ 4", "unit": "h"},
      {"measurement": "time of peak PB progenitors and HSC after a single dose", "setting": "[1]; subcutaneous", "value": 60, "unit": "min"},
      {"measurement": "WBC counts", "setting": "WBC in peripheral blood", "value": "7.0±0.8 ×10^6/ml"},
      {"measurement": "total PB lymphocytes decreased to baseline", "setting": "WBC in peripheral blood; single dose", "value": "≤ 18", "unit": "h"},
      {"measurement": "HPP-CFC content of mobilized PB relative to the saline control", "setting": "LPP-CFC and HPP-CFC", "value": "greater"},
      {"measurement": "LPP-CFC content of mobilized PB relative to the saline control", "setting": "LPP-CFC and HPP-CFC", "value": "greater"},
      {"measurement": "increase in PB human WBC or human CD34 stem and progenitors", "setting": "[2]", "value": "did not result in a significant increase"},
      {"measurement": "binding of BOP to endosteal LSK relative to their central counterparts in vivo", "setting": "endosteal LSK", "value": "significantly greater binding of BOP"},
      {"measurement": "off-rates for α9β1 compared to α4β1", "setting": "α4β1 or α9β1 LN18 cells", "value": "significantly reduced off-rates"}
    ]},
    {"molecule": "Cc1ccccc1NC(=O)Nc1ccc(CC(=O)N(C)[C@@H](CC(C)C)C(=O)NCC[C@H](NC(=O)[C@@H]2CCCN2S(=O)(=O)c2cc(Cl)cc(Cl)c2)C(=O)O)cc1", "note": "[BIO5192, reference compound]", "values": [
      {"measurement": "inhibition of R-BC154 (IXb) binding to α9β1", "setting": "α9β1", "value": "did not inhibit"},
      {"measurement": "inhibition of R-BC154 (IXb) binding to CB HSC and progenitors", "setting": "[3]", "value": "partial inhibition"},
      {"measurement": "inhibition of R-BC154 (IXb) binding to CB lineage committed cells", "setting": "[3]", "value": "complete inhibition"},
      {"measurement": "increases in WBC counts, progenitors (LSK) and HSC (LSKSLAM) in the PB", "setting": "[1]; Intravenous administration, alone", "value": "moderate increases"},
      {"measurement": "Kd", "setting": "α4β1", "value": "< 0.01", "unit": "nM"}
    ]},
    {"molecule": "G-CSF: recombinant granulocyte-colony stimulating factor (protein, UniProt P09919 31-207, looked up) Granulocyte …: TPLGPASSLPQSFLLKCLEQVRKIQGDGAALQEKLVSECATYKLCHPEELVLLGHSLGIPWAPLSSCPSQALQLAGCLSQLHSGLFLYQGLLQALEGISPELGPTLDTLQLDVADFATTIWQQMEELGMAPALQPTQGAMPAFASAFQRRAGGVLVASHLQSFLEVSYRVLRHLAQP", "values": [
      {"measurement": "progenitors mobilized, G-CSF alone versus single dose of BOP and AMD3100", "setting": "[1]; 4-days of G-CSF", "value": "significantly greater number of progenitors"},
      {"measurement": "increase in PB human WBC or human CD34 stem and progenitors", "setting": "[2]", "value": "did not result in a significant increase"}
    ]}
  ]
}
